Experimental data from PubChem BioAssay AID256 (DTP/NCI, 2004).
Where “and” joins values, the source holds several entries; their conditions need not be identical. Identical values can stand only once. Toxic doses and inconclusive results are not listed.

Test system: CD2F1 mice, L1210 leukemia ip, survival T/C
Test: NCI In Vivo Anticancer Drug Screen. Data for tumor model L1210 Leukemia (intraperitoneal) in CD2F1 (CDF1) mice
Conditions: higher = longer survival
Outline: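 Transplantable tumor in mice; compound-treated vs vehicle-treated groups. Read-out = treated/control ratio of the measured endpoint.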

[1] = endpoint: mean survival time, dose: 50.0 mg/kg/injection, schedule: Q01DX009 (ip), vehicle: saline with Tween-80
[2] = endpoint: mean survival time, dose: 100.0 mg/kg/injection, schedule: Q01DX009 (ip), vehicle: saline with Tween-80
[3] = endpoint: mean survival time, dose: 200.0 mg/kg/injection, schedule: Q01DX009 (ip), vehicle: saline with Tween-80
[4] = endpoint: mean survival time, dose: 400.0 mg/kg/injection, schedule: Q01DX009 (ip), vehicle: saline with Tween-80
[5] = endpoint: mean survival time, dose: 100.0 mg/kg/injection, schedule: Q04DX002 (ip), vehicle: saline with Tween-80
[6] = endpoint: mean survival time, dose: 200.0 mg/kg/injection, schedule: Q04DX002 (ip), vehicle: saline with Tween-80
[7] = endpoint: mean survival time, dose: 100.0 mg/kg/injection, schedule: Q01DX001 (ip), vehicle: saline with Tween-80
[8] = endpoint: mean survival time, dose: 100.0 mg/kg/injection, schedule: Q04DX003 (ip), vehicle: saline with Tween-80
[9] = endpoint: mean survival time, dose: 200.0 mg/kg/injection, schedule: Q04DX003 (ip), vehicle: saline with Tween-80
[10] = endpoint: mean survival time, dose: 400.0 mg/kg/injection, schedule: Q01DX001 (ip), vehicle: saline with Tween-80
[11] = endpoint: mean survival time, dose: 400.0 mg/kg/injection, schedule: Q04DX003 (ip), vehicle: saline with Tween-80
[12] = endpoint: mean survival time, dose: 100.0 mg/kg/injection, schedule: Q01DX001 (ip), vehicle: saline
[13] = endpoint: mean survival time, dose: 200.0 mg/kg/injection, schedule: Q01DX001 (ip), vehicle: saline
[14] = endpoint: median survival time, dose: 12.5 mg/kg/injection, schedule: Q01DX005 (ip), vehicle: saline with Tween-80
[15] = endpoint: median survival time, dose: 25.0 mg/kg/injection, schedule: Q01DX005 (ip), vehicle: saline with Tween-80
[16] = endpoint: median survival time, dose: 50.0 mg/kg/injection, schedule: Q01DX005 (ip), vehicle: saline with Tween-80
[17] = endpoint: median survival time, dose: 100.0 mg/kg/injection, schedule: Q01DX005 (ip), vehicle: saline with Tween-80
[18] = endpoint: median survival time, dose: 200.0 mg/kg/injection, schedule: Q01DX005 (ip), vehicle: saline with Tween-80

Cc1ccc2cc3c(ccc4ccccc43)c3c2c1CC3
T/C [1]: 93 % of control
T/C [2]: 110 % of control
T/C [3]: 97 % of control
T/C [4]: 100 % of control

COc1cc(Cl)ccc1NC(=O)Nc1cccc(Cl)c1
T/C [5]: 88 % of control
T/C [6]: 95 % of control
T/C (endpoint: mean survival time, dose: 400.0 mg/kg/injection, schedule: Q04DX002 (ip), vehicle: saline with Tween-80): 95 % of control

Cc1cccc[n+]1C
T/C (endpoint: mean survival time, dose: 12.5 mg/kg/injection, schedule: Q04DX003 (ip), vehicle: saline): 102 % of control
T/C (endpoint: mean survival time, dose: 25.0 mg/kg/injection, schedule: Q04DX003 (ip), vehicle: saline): 104 % of control
T/C (endpoint: mean survival time, dose: 50.0 mg/kg/injection, schedule: Q04DX003 (ip), vehicle: saline): 100 % of control

Cc1cc(O)c(C(C)C)cc1N=O
T/C [7]: 96 % of control
T/C [2]: 94 % of control
T/C [8]: 103 % of control
T/C (endpoint: mean survival time, dose: 200.0 mg/kg/injection, schedule: Q01DX001 (ip), vehicle: saline with Tween-80): 94 % of control
T/C [3]: 88 % of control
T/C [9]: 100 % of control
T/C [10]: 89 % of control
T/C [4]: 87 % of control
T/C [11]: 106 % of control

COC(=O)C(c1ccccc1)C(c1ccccc1)c1ccccc1 (stereo unspecified)
T/C [5]: 95 % of control
T/C [6]: 87 % of control

O=[N+]([O-])c1cc([N+](=O)[O-])c(Cl)s1
T/C (endpoint: mean survival time, dose: 12.5 mg/kg/injection, schedule: Q04DX003 (ip), vehicle: saline with Tween-80): 92 % of control
T/C (endpoint: mean survival time, dose: 25.0 mg/kg/injection, schedule: Q04DX003 (ip), vehicle: saline with Tween-80): 91 % of control
T/C (endpoint: mean survival time, dose: 50.0 mg/kg/injection, schedule: Q04DX003 (ip), vehicle: saline with Tween-80): 88 % of control

O=C(CC([Se]c1ccccc1)c1ccccc1)c1ccccc1 (stereo unspecified)
T/C (endpoint: mean survival time, dose: 50.0 mg/kg/injection, schedule: Q01DX009 (ip), vehicle: saline sonified): 102 % of control
T/C (endpoint: mean survival time, dose: 100.0 mg/kg/injection, schedule: Q01DX009 (ip), vehicle: saline sonified): 102 % of control
T/C [8]: 105 % of control
T/C (endpoint: mean survival time, dose: 200.0 mg/kg/injection, schedule: Q01DX009 (ip), vehicle: saline sonified): 105 % of control
T/C [9]: 104 % of control

ClC/C(=N\N1CCCCCC1)c1ccccc1
T/C [12]: 103 % of control
T/C [13]: 103 % of control
T/C (endpoint: mean survival time, dose: 400.0 mg/kg/injection, schedule: Q01DX001 (ip), vehicle: saline): 102 % of control

CC(C)(Nc1ccccc1)c1cccs1
T/C [8]: 101 % of control
T/C [9]: 97 % of control
T/C [11]: 112 % of control

[Cl][Pt+2][Cl].[NH-]C1CCCC1[NH-] (stereo unspecified)
T/C (endpoint: median survival time, dose: 10.0 mg/kg/injection, schedule: Q04DX003 (ip), vehicle: Klucel (hydroxypropylcellulose) (HPC)): 166 % of control and 173 % of control
T/C (endpoint: median survival time, dose: 20.0 mg/kg/injection, schedule: Q04DX003 (ip), vehicle: Klucel (hydroxypropylcellulose) (HPC)): 196 % of control and 333 % of control

CC(C)(C)c1ccc(SCC#CCOc2ccc(Cl)cc2)cc1
T/C [2]: 95 % of control
T/C [8]: 95 % of control
T/C [3]: 91 % of control
T/C [9]: 96 % of control
T/C [4]: 88 % of control
T/C [11]: 87 % of control

COC(=O)c1c2ccccc2[n+](C)c2ccccc12
T/C (endpoint: mean survival time, dose: 12.5 mg/kg/injection, schedule: Q01DX009 (ip), vehicle: saline): 95 % of control
T/C (endpoint: mean survival time, dose: 25.0 mg/kg/injection, schedule: Q01DX009 (ip), vehicle: saline): 95 % of control
T/C (endpoint: mean survival time, dose: 50.0 mg/kg/injection, schedule: Q01DX009 (ip), vehicle: saline): 100 % of control
T/C [12]: 91 % of control
T/C [13]: 96 % of control

O=NN(CCOS(=O)(=O)c1ccc([N+](=O)[O-])cc1)C(=O)NC1CCCCC1
T/C (endpoint: mean survival time, dose: 100.0 mg/kg/injection, schedule: Q01DX001 (ip), vehicle: other): 106 % of control
T/C (endpoint: mean survival time, dose: 200.0 mg/kg/injection, schedule: Q01DX001 (ip), vehicle: other): 153 % of control
T/C (endpoint: mean survival time, dose: 400.0 mg/kg/injection, schedule: Q01DX001 (ip), vehicle: other): 472 % of control

CC(Cc1ccc(O)cc1)NCC(O)c1ccc(O)c(O)c1 (stereo unspecified)
T/C (endpoint: mean survival time, dose: 12.5 mg/kg/injection, schedule: Q01DX009 (ip), vehicle: saline with Tween-80): 102 % of control and 104 % of control
T/C (endpoint: mean survival time, dose: 25.0 mg/kg/injection, schedule: Q01DX009 (ip), vehicle: saline with Tween-80): 103 % of control and 104 % of control
T/C [1]: 105 % of control and 111 % of control
T/C [2]: 108 % of control and 111 % of control
T/C [3]: 103 % of control and 111 % of control
T/C [4]: 113 % of control and 112 % of control

COc1nc(NC2OCC(O)C(O)C2O)c(Br)c(=O)n1C (stereo unspecified)
T/C [14]: 100 % of control
T/C [15]: 101 % of control
T/C [16]: 101 % of control
T/C [17]: 101 % of control
T/C [18]: 101 % of control

O=C(c1ccccc1)C1CC2(c3ccccc3)C(=O)C1(c1ccccc1)c1c2c2ccccc2c2ccccc12 (stereo unspecified)
T/C (endpoint: mean survival time, dose: 50.0 mg/kg/injection, schedule: Q01DX001 (ip), vehicle: saline with Tween-80): 90 % of control
T/C [7]: 86 % of control and 94 % of control
T/C [10]: 89 % of control

CC1=C2C(=CC(C)(CO)C2O)C(O)C(C)(O)C12CC2 (stereo unspecified)
T/C (endpoint: mean survival time, dose: 1.56 mg/kg/injection, schedule: Q01DX005 (ip), vehicle: water): 94 % of control
T/C (endpoint: mean survival time, dose: 3.13 mg/kg/injection, schedule: Q01DX005 (ip), vehicle: water): 87 % of control
T/C (endpoint: mean survival time, dose: 6.25 mg/kg/injection, schedule: Q01DX005 (ip), vehicle: water): 89 % of control
T/C (endpoint: mean survival time, dose: 12.5 mg/kg/injection, schedule: Q01DX005 (ip), vehicle: water): 94 % of control
T/C (endpoint: mean survival time, dose: 25.0 mg/kg/injection, schedule: Q01DX005 (ip), vehicle: water): 100 % of control

C(=C\c1nccc2c1[nH]c1ccccc12)/c1ccccc1
T/C [8]: 105 % of control
T/C [9]: 100 % of control
T/C [11]: 105 % of control

CCOC(=O)C(CC(=O)O)=C1c2ccccc2-c2ccccc21
T/C (endpoint: mean survival time, dose: 25.0 mg/kg/injection, schedule: Q04DX003 (ip), vehicle: Klucel (hydroxypropylcellulose) (HPC)): 96 % of control
T/C (endpoint: mean survival time, dose: 50.0 mg/kg/injection, schedule: Q04DX003 (ip), vehicle: Klucel (hydroxypropylcellulose) (HPC)): 93 % of control
T/C (endpoint: mean survival time, dose: 100.0 mg/kg/injection, schedule: Q04DX003 (ip), vehicle: Klucel (hydroxypropylcellulose) (HPC)): 87 % of control
T/C (endpoint: mean survival time, dose: 200.0 mg/kg/injection, schedule: Q04DX003 (ip), vehicle: Klucel (hydroxypropylcellulose) (HPC)): 93 % of control

Nc1nc(=O)n(C2OC(CO)C(O)C2Cl)cc1I (stereo unspecified)
T/C [14]: 97 % of control
T/C [15]: 112 % of control
T/C [16]: 104 % of control
T/C [17]: 107 % of control
T/C [18]: 104 % of control

COC(C[P+](Cc1ccccc1)(c1ccccc1)c1ccccc1)OC
T/C (endpoint: mean survival time, dose: 18.8 mg/kg/injection, schedule: Q04DX003 (ip), vehicle: saline): 104 % of control
T/C (endpoint: mean survival time, dose: 37.5 mg/kg/injection, schedule: Q04DX003 (ip), vehicle: saline): 103 % of control
T/C (endpoint: mean survival time, dose: 75.0 mg/kg/injection, schedule: Q01DX001 (ip), vehicle: saline): 101 % of control
T/C (endpoint: mean survival time, dose: 75.0 mg/kg/injection, schedule: Q04DX003 (ip), vehicle: saline): 98 % of control

COc1cc2c(ccc3c4cc(OC)c(OC)cc4c[n+](C)c23)cc1O
T/C (endpoint: mean survival time, dose: 80.0 mg/kg/injection, schedule: Q01DX009 (ip), vehicle: saline): 150 % of control
T/C (endpoint: mean survival time, dose: 160.0 mg/kg/injection, schedule: Q01DX009 (ip), vehicle: saline with Tween-80): 150 % of control
T/C (endpoint: mean survival time, dose: 160.0 mg/kg/injection, schedule: Q01DX009 (ip), vehicle: saline): 174 % of control
T/C (endpoint: mean survival time, dose: 320.0 mg/kg/injection, schedule: Q01DX009 (ip), vehicle: saline with Tween-80): 87 % of control
T/C (endpoint: mean survival time, dose: 320.0 mg/kg/injection, schedule: Q01DX009 (ip), vehicle: saline): 86 % of control
